Consider one compound from patent US8853264B2, “Use of lignan compounds for treating or preventing inflammatory disease” (Newtree Industry Co., Ltd., priority 2005, dated 2014).

One test deals with eosinophils. In words: Counting of immune cells in bronchioalveolar lavage (BAL) fluid, asthma model. It is filed as in vivo, C57BL/6 (B6) male mice. Particulars: oral 400 μg/g and 800 μg/g. How it is done:
5 μL of allergen, AP (aspergillus protease, 1 mg/mL, Sigma-Aldrich, St. Louis, Mo.) was mixed with 45 μL of OVA (chicken egg ovalbumin, 0.5 mg/mL, Sigma-Aldrich). After 3 intraperitoneal injections with 4-day intervals, asthma was induced by 2 intranasal challenges with 4-day interval. The intranasal challenge was performed under isoflurane inhalational anesthesia. Macelignan dissolved in corn oil was orally administered every day.
Within 24 hours after the last allergen challenge, the mouse was anesthetized by intraperitoneal injection of 0.1 mg/g sodium pentobarbital. After tracheal intubation, flexiVent (Scireq®, Montreal, Canada) was connected to maintain stable ventilation. Thereafter, striated muscle was relaxed by intravenous (IV) administration of 0.08 mg/kg pancuronium (Sigma-Aldrich). Following airway hypersensitivity test by IV administration of acetylcholine (Sigma-Aldrich), 1 mL of DPBS (Dulbecco's phosphate buffered saline) was injected twice into the intubation tube using a syringe for bronchioalveolar lavage. Thereafter, the chest was opened and the lungs were subjected to ELISpot assay. […]
When asthma is induced, various inflammatory cells increase in the airway. […] After performing BAL once again and collecting the BAL fluid, its volume was measured. […]

Another test relates to IgE. Kind of test: Total IgE in serum, mite antigen-induced atopic dermatitis. It is filed as in vivo, NC/Nga mice. Particulars: for IgE: 2 weeks, serum; for total IgE level compared to the positive control group: p<0.01. How it is done: 8-week-old NC/Nga mice (20-25 g) were purchased from Chungang Lab. Animal. After adapting for 1 week, the NC/Nga mouse was anesthetized with 90% ethyl ether (Ducsan, Korea) and hair was removed from the occipital region and the back of the mouse using depilatory cream (Reckitt Benckiser, France). After allowing micro wound healing for a day, 100 mg of mite antigen cream (Biostir, Inc. Japan) comprising Dermatophagoides farina, which causes atopic dermatitis, as a main ingredient was evenly applied on the ear, occipital region and back, 3 times a week (for 5 weeks, from week 9 to week 13). 2 hours before application of the mite antigen cream, 4% SDS solution was applied at the same area to increase transdermal absorption of the mite antigen cream by inducing the breakdown of skin fats and cuticle layer. From week 3 following the application, IgE value was measured to quantitate the degree of atopic dermatitis. Also during the drug treatment period (week 12 to week 13), 100 mg of the mite antigen cream was applied 3 times a week to prevent spontaneous healing of the atopic dermatitis.
In order to induce atopic dermatitis, 100 mg of mite antigen cream was applied on the ear, occipital region and back of NC/Nga mouse (9 to 11 weeks old), except for the negative control group, 3 times a week, 2 hours after the application of 4% SDS solution. Three weeks later, it was observed whether atopic dermatitis was induced by checking skin rash, erythema, cornification, or the like. Atopic dermatitis was induced in all groups except for the negative control group. For drug treatment and evaluation of therapeutic effect, mice were grouped into 12 groups, 6 oral administration groups and 6 topical application groups (each consisting of negative control group, positive control group, macelignan low conc. group, macelignan high conc. group, nutmeg extract low conc. group, and nutmeg extract high conc. group), with n=5 per cage. During the following drug treatment and evaluation period of 2 weeks (12 to 13 weeks old), the negative control groups, which had not been treated with 4% SDS solution and mite antigen cream, were treated with physiological saline (oral administration group) or base cream (topical application group) every day, and the positive control groups, which had been treated with 100 mg of mite antigen cream 2 hours after application of 4% SDS solution, 3 times every week, were treated with physiological saline (oral administration group) or base cream (topical application group). The oral administration groups were treated with 100 mg of mite antigen cream 2 hours after application of 4% SDS solution, 3 times every week, and were treated with macelignan or nutmeg extract at low concentration (50 mg/kg/day) or high concentration (150 mg/kg/day) every day. The topical application groups were treated with 100 mg of mite antigen cream 2 hours after application of 4% SDS solution, 3 times every week, and were treated with macelignan cream or nutmeg extract cream at low concentration (20 mg/kg/day) or high concentration (60 mg/kg/day) every day. Transepidermal water loss (TEWL), skin hydration and erythema index were measured one day before the end of the test. Serum was obtained by retro-orbital blood sampling. After the end of the test (14 weeks old) spleen and skin tissues from occipital region and back were sampled and stored at −70° C. ALN (axillary lymph node) was stored in DMEM containing 2% FBS (fetal bovine serum). The skin tissues were stored in 10% formalin solution.
Blood was taken by retro-orbital blood sampling using a capillary tube (Chase Scientific Glass, Inc., USA), which was centrifuged at 13,000 rpm to obtain serum. IgE level was measured using a mouse IgE ELISA kit (Immunology Consultants Laboratory, Inc., USA).

The test system of a further test is CD4 T cells. Kind of test: T cell proliferation by MTT assay. Type of test: cell-based, mouse. Particulars: antibody (CD3 & CD28) stimulation; macelignan 0.01-100 μg/ml. From the text: In order to investigate how macelignan directly affects T cells, the cells were stimulated and treated with macelignan at the same time. Wild type and OT-II transgenic mouse CD4 T cells, and antigen presenting cells were used (T cell receptor of CD4 T cells of OT-II transgenic mouse cells is specific for OVA peptide323-339). Wild type CD4 T cells were stimulated with anti-CD3 and anti-CD28 antibodies (BD Pharmigen, San Diego, Calif.), and OT-II transgenic CD4 T cells were stimulated with OVA peptide (Baylor College of Medicine Protein Co-facility). The effect of macelignan was determined by the degree of proliferation of the T cells by MTT assay and by the level of cytokine production. After culturing for 4 days, the level of cytokine production was measured from the supernatant by ELISA. MTT assay was performed using cell proliferation assay kit I (Roche). Cytokines IL-4, IL-17 and IFN-g were detected. ELISA was performed using primary antibody, secondary antibody, streptavidin-alkaline phosphatase (BD Pharmigen) and phosphatase substrate (Sigma-Aldrich, St. Louis, Mo.) according to the manufacturer's instructions.
On the technique in general: Formazan colour is commonly taken as a measure of viable cells.

`COc1cc(C[C@H](C)[C@H](C)Cc2ccc3c(c2)OCO3)ccc1O` (single isomer, unassigned) [macelignan]: the “other immune cells in the BAL fluid” value with eosinophils is listed as “Decrease of other immune cells was not observed”. In the test with eosinophils (vs vehicle (corn oil) group), the “eosinophils in the BAL fluid” value is listed as “decreased eosinophils”. The IgE with IgE (oral administration 50 mg/kg/day) came to 19.6 ± 13.5 µg/mL; in the test with IgE (oral administration 150 mg/kg/day) it was 16.6 ± 5.3 µg/mL; in the test with IgE (topical application (cream) 20 mg/kg/day) it was 22.1 ± 3.6 µg/mL; in the test with IgE (topical application (cream) 60 mg/kg/day) it was 18.6 ± 4.1 µg/mL. The “total IgE level compared to the positive control group” value in the test with IgE (oral administration 50 and 150 mg/kg) is given as “statistically significant decrease in total IgE level”; in the test on IgE (topical application 20 and 60 mg/kg), “statistically significant decrease in total IgE level”. In the test with CD4 T cells, the “proliferation of T cells” value was “no effect”.
